{"source": "paper PMC9221546", "about": "“New Phenylglycinamide Derivatives with Hybrid Structure as Candidates for New Broad-Spectrum Anticonvulsants” (Cells, 2022)", "key": {"[1]": {"system": "mice", "test": "Capsaicin-induced hypothermia model / core body temperature", "type": "in vivo", "conditions": "i.p. 15 min before capsaicin 5 mg/kg; compound 60 50 mg/kg, BCTC 20 mg/kg", "procedure": "Capsaicin was dissolved in 1% DMSO and administered at a dose of 5 mg/kg at a time point 0 min. Compound 60 and BCTC (positive control) were suspended in 1% Tween 80 and administered 15 min before capsaicin (at time point -15 min). All compounds were injected i.p. at a constant volume of 10 mL/kg. Control animals received the respective vehicles (1% DMSO or 1% Tween 80). Changes in the rectal temperature were measured using an electronic thermometer (ThermoWorks, Alpine, UT, USA) by inserting the rectal probe to a depth of ~2 cm into the rectum of the mouse. The measurements were taken at −15, 0, 15, 30, 60, 90, 120, and 180 min. The differences in the rectal temperature from baseline (time -15 min for groups receiving compound 60 and BCTC in combination with vehicle or time 0 min for groups receiving vehicle and capsaicin or compound 60 and BCTC in combination with capsaicin) to the respective time point ΔT (°C) were then calculated and analyzed. The results are shown in Figure 4 (see Section 3 Results and Discussion).\nFigure 4 Effects of compound 60 and BCTC alone (A) or in combination with capsaicin (B) on the core body temperature in mice. Capsaicin (CPS) was injected at 0 min, as indicated by the arrow. Compound 60 or BCTC were administered 15 min prior to CPS injection. The temperature was measured at −15, 0, 15, 30, 60, 90, 120, and 180 min. Since body temperature returned to control values 60 min after CPS injection, subsequent measurements are not shown. Control animals received vehicles (1% DMSO or 1% Tween 80). All the compounds were administered i.p. Each experimental group consisted of seven to eight animals. The data are presented as the mean differences (ΔT) in rectal temperature from baseline (time −15 for A and time 0 for B) to the respective time point. The data were analyzed with one-way ANOVA followed by Tukey’s post hoc test. ** p < 0.01, *** p < 0.001, **** p < 0.0001 vs. the control group; ^#### p < 0.0001 vs. the CPS-treated group."}, "[2]": {"test": "PAMPA permeability (Pre-coated PAMPA Plate System Gentest)", "type": "in vitro ADME", "conditions": "read-out: Pe (permeability coefficient) ± SD", "source_text": "Caffeine (CFN) and norfloxacin (NFX) were used as the high- and low-permeable references, respectively."}, "[3]": {"system": "GABAA ion channel", "test": "GABAA ion channel [3H]GABA binding (agonist radioligand)", "conditions": "100 µM; rat cerebral cortex", "procedure": "(§1) Binding/functional studies were carried out commercially in Eurofins Laboratories (Poitiers, France) and Eurofins Panlabs Discovery Services Taiwan, Ltd. (New Taipei City, Taiwan) using testing procedures that were reported previously (for details see Table S2).\n(§2) Table S2. Radioligand binding and functional assays. […]\nGABAA ion channel [3H]GABA (agonist radioligand) […]\n(§3) TRPV1 (VR1) (h) (antagonist effect) […]\n(§4) Assays were performed commercially in Eurofins Laboratories (Poitiers, France) or Eurofins Panlabs Discovery\n(§5) Services Taiwan, Ltd. (New Taipei City, Taiwan). […]"}, "[4]": {"molecular_target": "T1, hERG (Homo sapiens, UniProt Q12809)", "T1 construct": "Eurofins", "T1 sequence (Q12809 whole entry)": "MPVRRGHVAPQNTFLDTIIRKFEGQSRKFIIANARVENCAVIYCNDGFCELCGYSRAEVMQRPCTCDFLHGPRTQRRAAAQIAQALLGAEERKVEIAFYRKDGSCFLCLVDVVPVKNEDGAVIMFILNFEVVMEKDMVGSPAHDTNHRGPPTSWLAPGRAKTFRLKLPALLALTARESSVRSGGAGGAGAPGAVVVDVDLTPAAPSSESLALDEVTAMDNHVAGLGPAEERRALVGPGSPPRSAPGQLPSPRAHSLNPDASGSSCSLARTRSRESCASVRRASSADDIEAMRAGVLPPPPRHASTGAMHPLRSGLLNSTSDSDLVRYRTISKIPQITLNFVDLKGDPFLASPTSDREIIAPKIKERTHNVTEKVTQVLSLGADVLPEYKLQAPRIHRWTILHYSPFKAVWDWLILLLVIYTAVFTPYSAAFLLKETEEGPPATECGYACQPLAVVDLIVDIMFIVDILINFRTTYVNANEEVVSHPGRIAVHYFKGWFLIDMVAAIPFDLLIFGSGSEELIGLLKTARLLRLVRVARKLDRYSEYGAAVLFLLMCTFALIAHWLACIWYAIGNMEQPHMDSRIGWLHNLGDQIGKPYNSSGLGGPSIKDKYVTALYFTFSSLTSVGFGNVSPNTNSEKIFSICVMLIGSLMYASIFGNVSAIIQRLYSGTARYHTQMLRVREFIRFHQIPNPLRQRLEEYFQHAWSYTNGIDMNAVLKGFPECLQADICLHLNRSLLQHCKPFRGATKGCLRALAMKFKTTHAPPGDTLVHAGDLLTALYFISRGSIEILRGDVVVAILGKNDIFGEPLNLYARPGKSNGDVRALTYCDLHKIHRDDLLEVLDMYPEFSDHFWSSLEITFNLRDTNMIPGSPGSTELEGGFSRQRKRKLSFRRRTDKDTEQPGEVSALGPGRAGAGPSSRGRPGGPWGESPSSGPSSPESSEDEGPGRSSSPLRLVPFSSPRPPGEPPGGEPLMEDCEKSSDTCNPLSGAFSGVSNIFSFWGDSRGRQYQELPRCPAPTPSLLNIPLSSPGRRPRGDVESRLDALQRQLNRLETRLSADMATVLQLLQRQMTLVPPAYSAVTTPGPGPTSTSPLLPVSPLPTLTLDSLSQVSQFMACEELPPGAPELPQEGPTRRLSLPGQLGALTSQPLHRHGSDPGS", "test": "Potassium channel (hERG) binding", "conditions": "human recombinant HEK-293 cells expressing hERG, human recombinant HEK-293 cell, read-out: % Inhibition of Control Specific Binding, hERG", "procedure": "as §1, §2\nPotassium channel (hERG)\nas §3, §4, §5"}, "[5]": {"system": "GABA transporter", "test": "GABA transporter binding (antagonist radioligand)", "conditions": "100 µM; rat cerebral cortex", "procedure": "as §1, §2\nGABA transporter (antagonist radioligand) […]\nas §3, §4, §5"}, "[6]": {"system": "fast voltage-gated sodium channels in rat prefrontal cortex pyramidal neurons", "test": "Patch-clamp of fast sodium currents", "type": "cell-based", "conditions": "control = 1.0, n = 7", "procedure": "The methodology of slice preparation, slice preincubation, and patch-clamp technique was the same as in our previous studies. Compound 53 was tested at a concentration of 10 µM.\nThus, we determined the influence of 53 on fast voltage-gated sodium channels in rat prefrontal cortex pyramidal neurons (at a concentration of 10 μM) using the patch-clamp technique. Maximal currents were evoked by rectangular voltage steps to 0 mV. […] The effect was not strong, but statistically significant (1.0 in the control and 0.83 ± 0.03 after the application of 53, p < 0.01). It was possible to obtain partial wash-out (0.86 ± 0.03 and the current were normalized to the control level, n = 7, Figure 5).\nFigure 5 (A) The influence of compound 53 on sodium current is shown on an example neuron. The current was evoked once every ten seconds by a rectangular voltage-step. […] (B) Example of the sodium current recordings in the control (black trace), after the application of the tested compound (blue trace), and after wash-out (red trace). (C) The averaged normalized maximal current amplitudes in the control, in the presence of 53, and after wash-out. The data were analyzed with a nonparametric repeated measures ANOVA followed by Dunn’s post hoc test. * p < 0.01 (n = 7)."}, "[7]": {"system": "NMDA receptor", "test": "NMDA binding (antagonist radioligand)", "conditions": "100 µM; rat cerebral cortex", "procedure": "as §1, §2\nNMDA (antagonist radioligand) […]\nas §3, §4, §5"}, "[8]": {"test": "Neurotoxicity, SH-SY5Y viability (MTS)", "type": "cell-based", "conditions": "human, SH-SY5Y neuroblastoma cells, 10 and 50 µM, read-out: SH-SY5Y cell viability, % of the control", "procedure": "Moreover, the dose-dependent increase in the cells viability was found during the repeated experiment in lower concentrations (Figure 8B). […] Thus, the observed influence of this chemical group for neuronal cells is worth further detailed exploration.\nFigure 8 The effect of 53 and the cytostatic drug doxorubicin (DX) on neuroblastoma SH-SY5Y cell line viability after 72 h of incubation at 37 °C, 5% CO2 in the concentration range 1–100 µM (A) and 0.001–1 µM (B). The data were analyzed with one-way ANOVA, followed by Bonferroni’s Comparison Test (Graph Pad Prism 8.0.1 software, San Diego, CA, USA)): *** p < 0.001, **** p < 0.0001 vs. negative control (DMSO 1% in growth media)."}}}
{"smiles": "CC(=O)NC(C(=O)N1CCN(c2cccc(OC(F)(F)F)c2)CC1)c1ccccc1", "note": "(stereo not shown) [Compound 60, N-(2-oxo-1-phenyl-2-(4-(3-(trifluoromethoxy)phenyl)piperazin-1-yl)ethyl)acetamide]", "values": [{"measurement": "effect on capsaicin-induced hypothermia (co-administration)", "setting": "[1]", "result": "did not affect the capsaicin-induced hypothermia"}, {"measurement": "Papp", "setting": "[2]", "result": "9.15 ± 0.78", "unit": "×10⁻⁶ cm/s"}]}
{"smiles": "CC(=O)NC(C(=O)N1CCN(c2cccc(C(F)(F)F)c2)CC1)c1ccccc1", "note": "(stereo not shown) [Compound 53, N-(2-oxo-1-phenyl-2-(4-(3-(trifluoromethyl)phenyl)piperazin-1-yl)ethyl)acetamide]", "values": [{"measurement": "% Inhibition of Control Specific Binding, GABAA ion channel", "setting": "[3]", "result": "−1.1 (100) %"}, {"measurement": "inhibition at 100 µM", "setting": "[4]", "result": 24, "unit": "%"}, {"measurement": "% Inhibition of Control Specific Binding, GABA transporter", "setting": "[5]", "result": "2.8 (100) %"}, {"measurement": "normalized maximal amplitude of sodium current after application", "setting": "[6]; 10 μM", "result": "0.83 ± 0.03"}, {"measurement": "normalized maximal amplitude of sodium current after wash-out", "setting": "[6]; after 10 μM", "result": "0.86 ± 0.03"}, {"measurement": "melting point", "result": "131.8 to 132.5", "unit": "°C"}, {"measurement": "% Inhibition of Control Specific Binding, NMDA", "setting": "[7]", "result": "9.0 (100) %"}, {"measurement": "viability at 72 h", "setting": "[8]", "result": "≤ 140", "unit": "%"}]}
